In patent US8481730B2, “Method of synthesis of Bosentan, its polymorphic forms and its salts” (CIPLA Limited, priority 2008, dated 2013):

Details: on exposure to air; "stable" = non-hygroscopic, does not pick up moisture even in a highly humid atmosphere
From the text: According to another aspect of the present invention, there is provided anhydrous bosentan.

COc1ccccc1Oc1c(NS(=O)(=O)c2ccc(C(C)(C)C)cc2)nc(-c2ncccn2)nc1OCCO [Form B, Bosentan Form B]
stability / hygroscopicity (moisture pick-up): stable and non-hygroscopic
